We go through 45 molecules from patent publication US8901138B2, “Sulfoximine substituted quinazolines for pharmaceutical compositions” (Boehringer Ingelheim International GmbH, priority 2012, dated 2014).

The target in experiment [1] is T1, MNK2a (Homo sapiens, UniProt Q9HBH9).
T1 construct: made in house
Briefly: MNK2a in vitro kinase assay (assay 1), ADP-Glo. Type of experiment: biochemical. The following applies: preactivated GST-MNK2a, 20 μM ATP, read-out: MNK2 IC50. The method in brief: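 Preactivated GST-MNK2a (10 nM) with eIF4E peptide (25 μM) and ATP (20 μM) in HEPES/DTT/MgCl2 buffer, 90 min at room temperature, final DMSO <3%. ADP formed read by ADP-Glo luminescence and normalised to vehicle and 20 μM reference-inhibitor controls; IC50 from dose-response curves.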

In experiment [2] the target is MNK1a (Homo sapiens, UniProt Q9BUB5). Briefly: MNK1 in vitro kinase assay (assay 2), Z'-LYTE. Type of experiment: biochemical. The following applies: for inhibition at 1 µM: compound concentration of 1 μM; for IC50: pre-activated GST-MNK1a. The method in brief: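 Pre-activated GST-MNK1a (13.5-54 ng) with 2 μM Ser/Thr 07 FRET peptide in 50 mM HEPES pH 7.5, 10 mM MgCl2, 2 mM MnCl2, 1 mM EGTA, 1 mM DTT, 1% DMSO; 1 h kinase then 1 h development at room temperature. Coumarin/fluorescein emission ratio gives % phosphorylation; sigmoidal dose-response fit.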
Sequence of MNK1a (Q9BUB5 1-424 isoform Q9BUB5-2): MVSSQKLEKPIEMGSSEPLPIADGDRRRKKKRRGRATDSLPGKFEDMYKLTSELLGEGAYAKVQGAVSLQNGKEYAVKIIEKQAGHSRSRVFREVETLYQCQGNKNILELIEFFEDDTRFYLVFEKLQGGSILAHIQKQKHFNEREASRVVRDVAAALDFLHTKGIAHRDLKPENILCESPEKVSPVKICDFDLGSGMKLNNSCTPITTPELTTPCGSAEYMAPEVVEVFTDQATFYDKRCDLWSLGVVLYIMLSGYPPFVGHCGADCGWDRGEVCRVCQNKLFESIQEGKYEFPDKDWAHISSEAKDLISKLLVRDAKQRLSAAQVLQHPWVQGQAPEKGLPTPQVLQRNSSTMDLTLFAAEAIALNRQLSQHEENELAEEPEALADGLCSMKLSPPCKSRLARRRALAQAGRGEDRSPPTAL

T1 sequence (Q9HBH9 whole entry): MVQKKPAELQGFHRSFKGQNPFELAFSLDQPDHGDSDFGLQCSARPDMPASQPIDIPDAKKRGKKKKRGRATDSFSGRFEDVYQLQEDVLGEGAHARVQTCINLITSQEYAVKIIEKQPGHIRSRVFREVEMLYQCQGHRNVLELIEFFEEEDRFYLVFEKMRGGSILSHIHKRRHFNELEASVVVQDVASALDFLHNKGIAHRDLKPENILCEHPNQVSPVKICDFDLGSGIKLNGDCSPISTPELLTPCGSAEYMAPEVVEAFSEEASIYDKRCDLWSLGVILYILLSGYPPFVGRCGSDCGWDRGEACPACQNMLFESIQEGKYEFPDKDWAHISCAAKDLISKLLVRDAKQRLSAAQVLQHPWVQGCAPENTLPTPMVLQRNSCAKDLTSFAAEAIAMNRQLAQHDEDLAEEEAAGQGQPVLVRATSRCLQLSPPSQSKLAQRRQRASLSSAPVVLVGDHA

Turning to `CO[C@H]1CC[C@H](Oc2cc(F)ccc2Nc2ncnc3cc(N=S4(=O)CCOCC4)cc(C)c23)CC1` [Example 2.17], in experiment [1], the IC50 came to 4 nM. Also, the inhibition at 1 µM in experiment [2] stood at 91%.

`Cc1cc(N=S(C)(C)=O)cc2ncnc(Nc3cccnc3O[C@@H]3CCCN(C(=O)OC(C)(C)C)C3)c12` [Example 2.23]: the IC50 in experiment [1] was determined as 52 nM. Also, the inhibition at 1 µM in experiment [2] is 66%.

Consider `Cc1cc(N=S(C)(C)=O)cc2ncnc(Nc3ccc(C(N)=O)cc3OC3CCCC3)c12` [Example 2.24], for which the IC50 in experiment [1] stood at 4 nM. For the same molecule, in experiment [2], the inhibition at 1 µM was determined as 93%.

`Cc1cc(N=S(C)(C)=O)cc2ncnc(Nc3ccc(F)cc3O[C@@H]3CCCN(C(=O)OC(C)(C)C)C3)c12` [Example 2.27]: the IC50 in experiment [1] is 46 nM. Further, in experiment [2], the inhibition at 1 µM is 78%.

With `Cc1cc(N=S(C)(C)=O)cc2ncnc(Nc3ccc(F)cc3O[C@@H]3CO[C@H]4[C@@H]3OC[C@H]4OC(C)C)c12` [Example 2.28], in experiment [1], the IC50 was 4 nM. Besides, in experiment [2], the inhibition at 1 µM turned out to be 98%.

In the case of `Cc1cc(N=S(C)(C)=O)cc2ncnc(Nc3ccc(F)cc3O[C@@H]3CO[C@H]4[C@@H]3OC[C@H]4C#N)c12` [Example 2.30], the IC50 in experiment [1] came out at 7 nM. In addition, the inhibition at 1 µM in experiment [2] amounted to 88%.

`Cc1cc(N=S(C)(C)=O)cc2ncnc(Nc3cccnc3O[C@H]3CC[C@H](O)CC3)c12` [Example 2.31]: in experiment [1], the IC50 was found to be 2 nM. For the same molecule, the inhibition at 1 µM in experiment [2] is 100%.

For `CCS(C)(=O)=Nc1cc(C)c2c(Nc3ccc(F)cc3O[C@@H]3CO[C@H]4[C@@H]3OC[C@H]4O)ncnc2c1` (stereo partly drawn) [Example 2.33], in experiment [1], the IC50 was found to be 3 nM. Moreover, the inhibition at 1 µM in experiment [2] was 100%.

With `CO[C@@H]1CO[C@H]2[C@@H]1OC[C@H]2Oc1cc(F)ccc1Nc1ncnc2cc(N=S(C)(C)=O)cc(C)c12` [Example 2.34], the IC50 in experiment [1] was determined as 1 nM; in experiment [2] it was 17 nM.

Take `CS(C)(=O)=Nc1cc(F)c2c(Nc3ccc(F)cc3O[C@H]3CC[C@@](C)(O)CC3)ncnc2c1` [Example 2.35]: the half-maximal inhibitory concentration (IC50) in experiment [1] was found to be 4 nM. Also, in experiment [2], the inhibition at 1 µM stood at 95%.

As for `CCO[C@@H]1CO[C@H]2[C@@H]1OC[C@H]2Oc1cc(F)ccc1Nc1ncnc2cc(N=S3(=O)CCCC3)cc(C)c12` [Example 2.37], the IC50 in experiment [1] was 1 nM. Further, the inhibition at 1 µM in experiment [2] came out at 95%.

In the case of `Cc1cc(N=S(C)(=O)c2ccccn2)cc2ncnc(Nc3ccc(F)cc3O[C@H]3CCOC3)c12` (stereo partly drawn) [Example 2.38], the IC50 in experiment [1] came out at 7 nM. In addition, the inhibition at 1 µM in experiment [2] is 82%.

`Cc1cc(N=S2(=O)CCCC2)cc2ncnc(Nc3ccc(F)cc3O[C@H]3CC[C@H](O)CC3)c12` [Example 2.40]: the IC50 in experiment [1] turned out to be 2 nM. For the same molecule, in experiment [2], the inhibition at 1 µM came out at 100% and the concentration for half-maximal inhibition (IC50) amounted to 56 nM.

For `COCCS(C)(=O)=Nc1cc(C)c2c(Nc3ccc(F)cc3O[C@@H]3CO[C@H]4[C@@H]3OC[C@H]4O)ncnc2c1` (stereo partly drawn) [Example 2.41], the IC50 in experiment [1] stood at 6 nM. The inhibition at 1 µM in experiment [2] was determined as 90%.

Turning to `CCS(C)(=O)=Nc1cc(C)c2c(Nc3cccnc3O[C@H]3CC[C@H](O)CC3)ncnc2c1` (stereo partly drawn) [Example 2.44], the half-maximal inhibitory concentration (IC50) in experiment [1] turned out to be 3 nM. Moreover, the inhibition at 1 µM in experiment [2] is 100%.

As to `Cc1cc(N=S(C)(C)=O)cc2ncnc(Nc3ccc(F)cc3O[C@@H]3CO[C@H]4[C@@H]3OC[C@@]4(C)O)c12` [Example 2.45], in experiment [1], the IC50 turned out to be 2 nM. Besides, the inhibition at 1 µM in experiment [2] came to 90%.

Regarding `Cc1cc(N=S(C)(C)=O)cc2ncnc(Nc3ccc(F)cc3O[C@H]3CCOC3)c12` [Example 2.47], the IC50 in experiment [1] is 2 nM. Besides, in experiment [2], the inhibition at 1 µM came out at 97%.

Regarding `CO[C@H]1CC[C@H](Oc2ncccc2Nc2ncnc3cc(N=S(C)(C)=O)cc(F)c23)CC1` [Example 2.49], the IC50 in experiment [1] was 4 nM. Moreover, in experiment [2], the inhibition at 1 µM was determined as 86%.

`Cc1cc(N=S2(=O)CCCCC2)cc2ncnc(Nc3ccc(F)cc3O[C@@H]3CO[C@H]4[C@@H]3OC[C@H]4O)c12` [Example 2.51]: the half-inhibitory concentration (IC50) in experiment [1] turned out to be 3 nM. The inhibition at 1 µM in experiment [2] was 101%.

For the molecule `CS(C)(=O)=Nc1cc(F)c2c(Nc3cccnc3O[C@@H]3CCOC3)ncnc2c1` [Example 2.53], the IC50 in experiment [1] was determined as 13 nM. Moreover, the inhibition at 1 µM in experiment [2] turned out to be 94%.

On to `Cc1cc(N=S(C)(=O)CCc2ccccc2)cc2ncnc(Nc3ccc(F)cc3O[C@H]3CC[C@H](O)CC3)c12` (stereo partly drawn) [Example 2.54], for which the IC50 in experiment [1] was determined as 5 nM. Besides, in experiment [2], the inhibition at 1 µM was determined as 69%.

On to `CCS(C)(=O)=Nc1cc(C)c2c(Nc3ccc(F)cc3O[C@@H]3CO[C@H]4[C@@H]3OC[C@H]4OC)ncnc2c1` (stereo partly drawn) [Example 2.55], for which the IC50 in experiment [1] turned out to be 2 nM. Further, the inhibition at 1 µM in experiment [2] stood at 99%.

On to `CO[C@H]1CC[C@H](Oc2cc(F)ccc2Nc2ncnc3cc(N=S4(=O)CCOCC4)cc(F)c23)CC1` [Example 2.56], for which the half-maximal inhibitory concentration (IC50) in experiment [1] is 11 nM. For the same molecule, the inhibition at 1 µM in experiment [2] was found to be 76%.

For the molecule `Cc1cc(N=S(C)(C)=O)cc2ncnc(Nc3ccsc3O[C@@H]3CCOC3)c12` [Example 2.58], the concentration for half-maximal inhibition (IC50) in experiment [1] was found to be 109 nM. Besides, the inhibition at 1 µM in experiment [2] was 30%.

Consider `Cc1cc(N=S2(=O)CCCC2)cc2ncnc(Nc3ccc(F)cc3O[C@@H]3CCN(C(=O)OC(C)(C)C)C3)c12` [Example 2.59], for which, in experiment [1], the IC50 was 15 nM. The inhibition at 1 µM in experiment [2] was 82%.

Regarding `Cc1cc(N=S(C)(C)=O)cc2ncnc(Nc3ccc(F)cc3O[C@@H]3CO[C@H]4[C@@H]3OC[C@@H]4C#N)c12` [Example 2.61], the half-maximal inhibitory concentration (IC50) in experiment [1] turned out to be 2 nM. Besides, the inhibition at 1 µM in experiment [2] is 98%.

In the case of `Cc1cc(N=[S@@](C)(=O)c2ccccc2)cc2ncnc(Nc3ccc(F)cc3O[C@H]3CCOC3)c12` [Example 2.64], the 50% inhibitory concentration (IC50) in experiment [1] was 3 nM. The inhibition at 1 µM in experiment [2] is 87%.

Take `Cc1cc(N=S(C)(C)=O)cc2ncnc(Nc3ccc(C#N)cc3O[C@H]3CC[C@H](O)CC3)c12` [Example 2.65]: the 50% inhibitory concentration (IC50) in experiment [1] came out at 5 nM. In experiment [2], the inhibition at 1 µM was 98%.

For `Cc1cc(N=S2(=O)CCCC2)cc2ncnc(Nc3ccc(F)cc3O[C@@H]3CCCN(C(=O)OC(C)(C)C)C3)c12` [Example 2.66], the IC50 in experiment [1] was determined as 16 nM. Further, the inhibition at 1 µM in experiment [2] was 88%.

For `CO[C@@H]1CCCC[C@H]1Oc1cc(F)ccc1Nc1ncnc2cc(N=S(C)(C)=O)cc(C)c12` [Example 2.67], in experiment [1], the IC50 turned out to be 3 nM. In experiment [2], the inhibition at 1 µM was found to be 85%.

In the case of `Cc1cc(N=[S@](C)(=O)c2ccccc2)cc2ncnc(Nc3ccc(F)cc3O[C@H]3CCOC3)c12` [Example 2.72], in experiment [1], the IC50 was 30 nM. The inhibition at 1 µM in experiment [2] was determined as 71%.

In the case of `CO[C@H]1CC[C@H](Oc2cc(F)ccc2Nc2ncnc3cc(N=S(C)(C)=O)cc(C)c23)CC1` [Example 2.75], the IC50 in experiment [1] was 3 nM. Further, in experiment [2], the inhibition at 1 µM came out at 100% and it took 75 nM to reach half-maximal inhibition (IC50).

Consider `CO[C@@H]1CO[C@H]2[C@@H]1OC[C@H]2Oc1cc(F)ccc1Nc1ncnc2cc(N=S(C)(C)=O)cc(F)c12` [Example 2.76], for which the IC50 in experiment [1] was 5 nM. For the same molecule, in experiment [2], the inhibition at 1 µM was 100% and 57 nM corresponded to half-maximal inhibition (IC50).

Regarding `CC(C)(C)OC(=O)N1CCC[C@@H](Oc2ncccc2Nc2ncnc3cc(N=S(C)(C)=O)cc(F)c23)C1` [Example 2.77], in experiment [1], the IC50 was 164 nM. Besides, in experiment [2], the inhibition at 1 µM was 55%.

Take `Cc1cc(N=S(C)(C)=O)cc2ncnc(Nc3ccc(F)cc3O[C@H]3CO[C@H]4[C@@H]3OC[C@@H]4O)c12` [Example 2.80]: the concentration for half-maximal inhibition (IC50) in experiment [1] was 19 nM. The inhibition at 1 µM in experiment [2] was determined as 73%.

Take `CCS(C)(=O)=Nc1cc(C)c2c(Nc3ccc(F)cc3O[C@H]3CC[C@H](OC)CC3)ncnc2c1` (stereo partly drawn) [Example 2.81]: in experiment [1], the half-maximal inhibitory concentration (IC50) came to 4 nM. In experiment [2], the inhibition at 1 µM worked out at 92%.

With `CO[C@H]1CC[C@H](Oc2cc(F)ccc2Nc2ncnc3cc(N=S4(=O)CCCCC4)cc(C)c23)CC1` [Example 2.84], the IC50 in experiment [1] turned out to be 2 nM. The inhibition at 1 µM in experiment [2] came out at 91%.

On to `COCCS(C)(=O)=Nc1cc(C)c2c(Nc3ccc(F)cc3O[C@H]3CC[C@H](OC)CC3)ncnc2c1` (stereo partly drawn) [Example 2.87], for which the IC50 in experiment [1] was found to be 7 nM. Moreover, the inhibition at 1 µM in experiment [2] stood at 79%.

On to `Cc1cc(N=S2(=O)CCCC2)cc2ncnc(Nc3cccnc3OC3COCCOC3)c12` [Example 2.88], for which, in experiment [1], the IC50 is 5 nM. The inhibition at 1 µM in experiment [2] was found to be 95%.

Regarding `Cc1cc(N=S(C)(C)=O)cc2ncnc(Nc3cccnc3OC3COCCOC3)c12` [Example 2.91], the 50% inhibitory concentration (IC50) in experiment [1] stood at 7 nM. Besides, in experiment [2], the inhibition at 1 µM amounted to 93%.

As to `CCS(=O)(CC)=Nc1cc(C)c2c(Nc3ccc(F)cc3O[C@H]3CCOC3)ncnc2c1` [Example 2.92], the IC50 in experiment [1] came out at 13 nM. Further, the inhibition at 1 µM in experiment [2] was 83%.

In the case of `Cc1cc(N=S2(=O)CCC(O)CC2)cc2ncnc(Nc3ccc(F)cc3O[C@@H]3CO[C@@H]4CCO[C@@H]43)c12` (stereo partly drawn) [Example 2.94], the IC50 in experiment [1] amounted to 1 nM. Also, the inhibition at 1 µM in experiment [2] is 98%.

As to `Cc1cc(N=S(C)(=O)c2cccnc2)cc2ncnc(Nc3ccc(F)cc3O[C@@H]3CO[C@@H]4CCO[C@@H]43)c12` (stereo partly drawn) [Example 2.95], the half-inhibitory concentration (IC50) in experiment [1] stood at 4 nM; in experiment [2], 33 nM.

As to `Cc1cc(N=S2(=O)CCC(O)CC2)cc2ncnc(Nc3ccc(F)cc3O[C@H]3CCOC3)c12` (stereo partly drawn) [Example 2.97], in experiment [1], the IC50 came out at 2 nM. Also, in experiment [2], the inhibition at 1 µM is 93%.

Regarding `Cc1cc(N=S2(=O)CCC2)cc2ncnc(Nc3ccc(F)cc3O[C@H]3CCOC3)c12` [Example 2.98], in experiment [1], the half-maximal inhibitory concentration (IC50) was determined as 1 nM. The inhibition at 1 µM in experiment [2] turned out to be 95%.
